Results published in paper PMC6278453, “Effects of Osthol Isolated from Cnidium monnieri Fruit on Urate Transporter 1” (Molecules, 2018).
Values belong to the compound of their own block, whether it stands above or below them.

Assays:
Type in all cases: cell-based
[1] = biological target: T1, urate transporter 1 (URAT1) (Homo sapiens, UniProt Q96S37); test: [[…]-14C]uric acid uptake in URAT1-transfected HEK293/PDZK1 cells, mock-subtracted; Lineweaver-Burk kinetics
T1 construct: gene SLC22A12; human URAT1 cDNA in pCMV-SPORT6, transiently transfected into HEK293/PDZK1 cells
T1 sequence (Q96S37 1-553): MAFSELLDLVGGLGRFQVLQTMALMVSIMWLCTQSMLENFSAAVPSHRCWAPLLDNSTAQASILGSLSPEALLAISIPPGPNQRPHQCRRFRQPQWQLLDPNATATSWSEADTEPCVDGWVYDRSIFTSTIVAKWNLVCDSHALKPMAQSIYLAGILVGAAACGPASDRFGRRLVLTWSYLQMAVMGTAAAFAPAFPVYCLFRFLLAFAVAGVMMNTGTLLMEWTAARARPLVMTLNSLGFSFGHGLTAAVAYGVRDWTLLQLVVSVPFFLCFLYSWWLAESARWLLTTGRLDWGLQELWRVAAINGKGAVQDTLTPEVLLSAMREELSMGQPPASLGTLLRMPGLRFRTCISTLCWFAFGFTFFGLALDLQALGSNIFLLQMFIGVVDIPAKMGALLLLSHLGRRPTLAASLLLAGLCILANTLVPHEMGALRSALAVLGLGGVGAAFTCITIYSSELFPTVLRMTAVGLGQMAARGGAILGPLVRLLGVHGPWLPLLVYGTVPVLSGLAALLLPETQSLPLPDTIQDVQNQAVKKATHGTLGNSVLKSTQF

[2] = biological target: T1, urate transporter 1 (URAT1); test: [[…]-14C]uric acid uptake in URAT1-transfected HEK293/PDZK1 cells, single concentration […]; settings: read-out: Urate Uptake (% of Control)
[3] = biological target: T1, urate transporter 1 (URAT1); test: radiolabelled uptake, […], Lineweaver-Burk plot

SMILES: COc1ccc2ccc(=O)oc2c1CC=C(C)C [compound 1, osthol]
IC50 [1]: 78.8 µM

remaining activity at 100 µM [2]: 31 ± 4%
SMILES: CC(C)=CCc1c(O)ccc2ccc(=O)oc12 [osthenol]

SMILES: O=c1[nH]c(=O)c2[nH]c(=O)[nH]c2[nH]1 [uric acid]
radiolabelled uptake, 25-200 μM, Lineweaver-Burk plot [3]: The uptakes of uric acid into the cells (V) were measured, and a Lineweaver–Burk plot was made.
